According to US9346811B2, “6,7-dihydro-pyrazolo[1,5-a]pyrazin-4-ylamine derivatives useful as inhibitors of beta-secretase (BACE)” (JANSSEN PHARMACEUTICA NV, priority 2011, dated 2016):

Tests used:
[1] = test system: Aβ42 produced and secreted into the medium of human neuroblastoma SKNBE2 cells; experiment: Cellular αlisa assay in SKNBE2 cells, Aβ42; format: cell-based; conditions: SKNBE2 cells expressing hAPP695, 18 hours incubation; for IC50: Homo sapiens, SKNBE2, 18 h, read-out: Cellular αlisa assay in SKNBE2 cells Aβ42 pIC50 (converted)
Method: (§1) Cellular αlisa Assay in SKNBE2 Cells
(§2) In two αlisa assays the levels of Aβtotal and Aβ42 produced and secreted into the medium of human neuroblastoma SKNBE2 cells are quantified. The assay is based on the human neuroblastoma SKNBE2 expressing the wild type Amyloid Precursor Protein (hAPP695). The compounds are diluted and added to these cells, incubated for 18 hours and then measurements of Aβ42 and Aβtotal are taken. Aβtotal and Aβ42 are measured by sandwich αlisa. αlisa is a sandwich assay using biotinylated antibody AbN/25 attached to streptavidin coated beads and antibody Ab4G8 or cAb42/26 conjugated acceptor beads for the detection of Aβtotal and Aβ42 respectively. In the presence of Aβtotal or Aβ42, the beads come into close proximity. The excitation of the Donor beads provokes the release of singlet oxygen molecules that triggers a cascade of energy transfer in the Acceptor beads, resulting in light emission. Light emission is measured after 1 hour incubation (excitation at […] and emission at 615 nm).
(§3) A best-fit curve is fitted by a minimum sum of squares method to the plot of % Controlmin versus compound concentration.

[2] = test system: Aβtotal produced and secreted into the medium of human neuroblastoma SKNBE2 cells; experiment: Cellular αlisa assay in SKNBE2 cells, Aβtotal; format: cell-based; conditions: SKNBE2 cells expressing hAPP695, 18 hours incubation; for IC50: Homo sapiens, SKNBE2, 18 h, read-out: Cellular αlisa assay in SKNBE2 cells Aβtotal pIC50 (converted)
Method: as §1, §2, §3

[3] = target: recombinant BACE1 protein (Homo sapiens, UniProt P56817); experiment: Biochemical FRET based assay; conditions: recombinant BACE1 1 μg/ml, 120 min, pH 5.0; for IC50: read-out: Biochemical FRET based assay pIC50 (converted)
Description: Biochemical FRET Based Assay
This assay is a Fluorescence Resonance Energy Transfer Assay (FRET) based assay. The substrate for this assay is an APP derived 13 amino acids peptide that contains the ‘Swedish’ Lys-Met/Asn-Leu mutation of the amyloid precursor protein (APP) β-secretase cleavage site. This substrate also contains two fluorophores: (7-methoxycoumarin-4-yl)acetic acid (Mca) is a fluorescent donor with excitation wavelength at 320 nm and emission at 405 nm and 2,4-Dinitrophenyl (Dnp) is a proprietary quencher acceptor. […] Upon cleavage by BACE1, the fluorophore Mca is separated from the quenching group Dnp, restoring the full fluorescence yield of the donor. The increase in fluorescence is linearly related to the rate of proteolysis (Koike H et al. J. Biochem. 1999, 126, 235-242). Briefly in a 384-well format recombinant BACE1 protein in a final concentration of 1 μg/ml is incubated for 120 min at room temperature with 10 μm substrate in incubation buffer (40 mM Citrate buffer pH 5.0, 0.04% PEG, 4% DMSO) in the absence or presence of compound. Next the amount of proteolysis is directly measured by fluorescence measurement at T=0 and T=120 (excitation at 320 nm and emission at 405 nm).

Chain of recombinant BACE1 protein (P56817 46-501): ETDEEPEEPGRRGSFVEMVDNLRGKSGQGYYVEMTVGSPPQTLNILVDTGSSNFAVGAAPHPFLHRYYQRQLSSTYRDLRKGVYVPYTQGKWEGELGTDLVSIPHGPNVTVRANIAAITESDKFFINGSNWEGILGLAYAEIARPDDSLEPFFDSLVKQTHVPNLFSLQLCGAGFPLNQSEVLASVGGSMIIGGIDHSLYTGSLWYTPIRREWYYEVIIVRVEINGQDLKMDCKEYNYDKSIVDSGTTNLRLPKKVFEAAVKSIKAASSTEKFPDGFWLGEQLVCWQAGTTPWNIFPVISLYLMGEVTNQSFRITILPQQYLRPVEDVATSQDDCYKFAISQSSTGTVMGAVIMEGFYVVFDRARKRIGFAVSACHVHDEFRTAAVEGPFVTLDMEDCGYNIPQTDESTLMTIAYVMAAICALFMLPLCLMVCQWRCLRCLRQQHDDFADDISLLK

## COc1cnc(C(=O)Nc2ccc(F)c(C3(C(F)F)Cn4nccc4C(N)=N3)c2)cn1 (single isomer, unassigned) [Compound 19, (S*)-5-methoxy-pyrazine-2-carboxylic acid [3-(4-amino-6-difluoromethyl-6,7-dihydro-pyrazolo[1,5-a]pyrazin-6-yl)-4-fluoro-phenyl]-amide]
[1]
  Cellular αlisa assay in SKNBE2 cells Aβ42 pIC50: 5.28
[2]
  Cellular αlisa assay in SKNBE2 cells Aβtotal pIC50: 5.13
[3]
  IC50: 9770 nM

## CC1(c2cc(NC(=O)c3ccn(C(F)F)n3)ccc2F)Cn2nc(C(F)F)cc2C(N)=N1 (stereo not drawn) [Compound 40]
[1]
  Cellular αlisa assay in SKNBE2 cells Aβ42 pIC50: 8.42
[2]
  Cellular αlisa assay in SKNBE2 cells Aβtotal pIC50: 8.37
[3]
  Biochemical FRET based assay pIC50: 7.28

## NC1=NC(c2cc(NC(=O)c3ccc(F)cn3)ccc2F)(C(F)F)Cn2nccc21 (racemic) [Compound 20, rac-5-fluoro-pyridine-2-carboxylic acid [3-(4-amino-6-difluoromethyl-6,7-dihydro-pyrazolo[1,5-a]pyrazin-6-yl)-4-fluoro-phenyl]-amide]
[1]
  IC50: 85.1 nM
[2]
  IC50: 66.1 nM
[3]
  IC50: 66.1 nM

## C[C@@]1(c2cc(NC(=O)c3cnn(C(F)F)c3)ccc2F)Cn2nc(C#N)cc2C(N)=N1 [Compound 25, (R)-1-difluoromethyl-1H-pyrazole-4-carboxylic acid [3-(4-amino-2-cyano-6-methyl-6,7-dihydro-pyrazolo[1,5-a]pyrazin-6-yl)-4-fluoro-phenyl]-amide]
[1]
  IC50: 1.32 nM
[2]
  IC50: 1.35 nM

## COc1cnc(C(=O)Nc2ccc(F)c(C3(C(F)F)Cn4nccc4C(N)=N3)c2)cn1 (single isomer, unassigned) [Compound 18, (R*)-5-methoxy-pyrazine-2-carboxylic acid [3-(4-amino-6-difluoromethyl-6,7-dihydro-pyrazolo[1,5-a]pyrazin-6-yl)-4-fluoro-phenyl]-amide]
[1]
  Cellular αlisa assay in SKNBE2 cells Aβ42 pIC50: 7.52
[2]
  Cellular αlisa assay in SKNBE2 cells Aβtotal pIC50: 7.54
[3]
  IC50: 22.4 nM

## CC1(c2cccc(NC(=O)c3ncc(Cl)cc3Cl)c2)Cn2nccc2C(N)=N1 (racemic) [Compound 3, rac-3,5-dichloro-pyridine-2-carboxylic acid [3-(4-amino-6-methyl-6,7-dihydro-pyrazolo[1,5-a]pyrazin-6-yl)-phenyl]-amide]
[1]
  IC50: 3.24 nM
[2]
  IC50: 3.39 nM
[3]
  IC50: 46.8 nM

## CC1(c2cc(NC(=O)c3ncc(Cl)cc3Cl)ccc2F)Cn2nccc2C(N)=N1 (single isomer, unassigned) [Compound 15, (R*)-3,5-dichloro-pyridine-2-carboxylic acid [3-(4-amino-6-methyl-6,7-dihydro-pyrazolo[1,5-a]pyrazin-6-yl)-4-fluoro-phenyl]-amide]
[1]
  Cellular αlisa assay in SKNBE2 cells Aβ42 pIC50: 9.33
[2]
  Cellular αlisa assay in SKNBE2 cells Aβtotal pIC50: 9.37
[3]
  IC50: 18.6 nM

## CC1(c2cccc(NC(=O)c3ncc(Cl)cc3Cl)c2)Cn2nc(C(F)(F)F)cc2C(N)=N1 (racemic) [Compound 10, rac-3,5-dichloro-pyridine-2-carboxylic acid [3-(4-amino-6-methyl-2-trifluoromethyl-6,7-dihydro-pyrazolo[1,5-a]pyrazin-6-yl)-phenyl]-amide]
[1]
  IC50: 16.6 nM
[2]
  IC50: 15.5 nM
[3]
  IC50: 63.1 nM

## CC1(c2cccc(NC(=O)c3ncc(Cl)cc3Cl)c2)Cn2nccc2C(N)=N1 (single isomer, unassigned) [Compound 5, (S*)-3,5-dichloro-pyridine-2-carboxylic acid [3-(4-amino-6-methyl-6,7-dihydro-pyrazolo[1,5-a]pyrazin-6-yl)-phenyl]-amide]
[1]
  Cellular αlisa assay in SKNBE2 cells Aβ42 pIC50: 8.59
[2]
  Cellular αlisa assay in SKNBE2 cells Aβtotal pIC50: 8.55
[3]
  IC50: 37.2 nM

## Cc1nn2c(c1F)C(N)=NC(C)(c1cc(NC(=O)c3ccc(F)cn3)ccc1F)C2 (racemic) [Compound 41]
[1]
  Cellular αlisa assay in SKNBE2 cells Aβ42 pIC50: 7.69
[2]
  Cellular αlisa assay in SKNBE2 cells Aβtotal pIC50: 7.67
[3]
  Biochemical FRET based assay pIC50: 6.93

## COc1cnc(C(=O)Nc2cccc(C3(C)Cn4nc(C(F)(F)F)cc4C(N)=N3)c2)cn1 (single isomer, unassigned) [Compound 31]
[1]
  Cellular αlisa assay in SKNBE2 cells Aβ42 pIC50: 5.58
[2]
  Cellular αlisa assay in SKNBE2 cells Aβtotal pIC50: 5.61
[3]
  Biochemical FRET based assay pIC50: 4.97

## Cc1nn2c(c1F)C(N)=NC(C)(c1cc(NC(=O)c3ccn(C(F)F)n3)ccc1F)C2 (stereo not drawn) [Compound 42]
[1]
  Cellular αlisa assay in SKNBE2 cells Aβ42 pIC50: 8.02
[2]
  Cellular αlisa assay in SKNBE2 cells Aβtotal pIC50: 7.99
[3]
  Biochemical FRET based assay pIC50: 7.12

## NC1=NC(c2cc(NC(=O)c3ccc(F)cn3)ccc2F)(C(F)F)Cn2nccc21 (single isomer, unassigned) [Compound 22, (R*)-5-fluoro-pyridine-2-carboxylic acid [3-(4-amino-6-difluoromethyl-6,7-dihydro-pyrazolo[1,5-a]pyrazin-6-yl)-4-fluoro-phenyl]-amide]
[1]
  Cellular αlisa assay in SKNBE2 cells Aβ42 pIC50: 7.17
[2]
  Cellular αlisa assay in SKNBE2 cells Aβtotal pIC50: 7.21
[3]
  IC50: 25.7 nM

## Cc1nc(C(=O)Nc2ccc(F)c(C3(C)Cn4ncc(F)c4C(N)=N3)c2)c(C(F)(F)F)o1 (stereo not drawn) [Compound 35]
[1]
  Cellular αlisa assay in SKNBE2 cells Aβ42 pIC50: 7.33
[2]
  Cellular αlisa assay in SKNBE2 cells Aβtotal pIC50: 7.30
[3]
  Biochemical FRET based assay pIC50: 6.91

## CC1(c2cccc(NC(=O)c3ccc(Cl)cn3)c2)Cn2nccc2C(N)=N1 (racemic) [Compound 2, rac-5-chloro-pyridine-2-carboxylic acid [3-(4-amino-6-methyl-6,7-dihydro-pyrazolo[1,5-a]pyrazin-6-yl)-phenyl]-amide]
[1]
  IC50: 3.24 nM
[2]
  IC50: 2.45 nM
[3]
  IC50: 83.2 nM

## CC1(c2cc(NC(=O)c3ccc(Cl)cn3)ccc2F)Cn2nc(C(F)F)cc2C(N)=N1 (stereo not drawn) [Compound 39]
[1]
  Cellular αlisa assay in SKNBE2 cells Aβ42 pIC50: 8.61
[2]
  Cellular αlisa assay in SKNBE2 cells Aβtotal pIC50: 8.59
[3]
  Biochemical FRET based assay pIC50: 7.39

## C[C@@]1(c2cc(NC(=O)c3ccc(C#N)cn3)ccc2F)Cn2nc(C#N)cc2C(N)=N1 [Compound 26, (R)-5-cyano-pyridine-2-carboxylic acid [3-(4-amino-2-cyano-6-methyl-6,7-dihydro-pyrazolo[1,5-a]pyrazin-6-yl)-4-fluoro-phenyl]-amide]
[1]
  IC50: 1.48 nM
[2]
  IC50: 1.45 nM
[3]
  IC50: 49 nM

## Cc1nc(C(=O)Nc2ccc(F)c(C3(C)Cn4ncc(F)c4C(N)=N3)c2)co1 (stereo not drawn) [Compound 34]
[1]
  Cellular αlisa assay in SKNBE2 cells Aβ42 pIC50: 7.83
[2]
  Cellular αlisa assay in SKNBE2 cells Aβtotal pIC50: 7.78
[3]
  Biochemical FRET based assay pIC50: 7.23

## CC1(c2cc(NC(=O)c3ccc(F)cn3)ccc2F)Cn2ncc(Cl)c2C(N)=N1 (stereo not drawn) [Compound 38]
[1]
  Cellular αlisa assay in SKNBE2 cells Aβ42 pIC50: 6.16
[2]
  Cellular αlisa assay in SKNBE2 cells Aβtotal pIC50: 6.22
[3]
  Biochemical FRET based assay pIC50: 6.03

## CC1(c2cccc(NC(=O)c3ccc(C#N)cn3)c2)Cn2nccc2C(N)=N1 (racemic) [Compound 6, rac-5-cyano-pyridine-2-carboxylic acid [3-(4-amino-6-methyl-6,7-dihydro-pyrazolo[1,5-a]pyrazin-6-yl)-phenyl]-amide]
[1]
  IC50: 5.75 nM
[2]
  IC50: 5.13 nM

## CC1(c2cccc(NC(=O)c3ccc(C#N)cn3)c2)Cn2nccc2C(N)=N1 (single isomer, unassigned) [Compound 8, (S*)-5-cyano-pyridine-2-carboxylic acid [3-(4-amino-6-methyl-6,7-dihydro-pyrazolo[1,5-a]pyrazin-6-yl)-phenyl]-amide]
[1]
  Cellular αlisa assay in SKNBE2 cells Aβ42 pIC50: 6.13
[2]
  Cellular αlisa assay in SKNBE2 cells Aβtotal pIC50: 6.13
